The values below come from patent US5574178A, “4,6-Di-t-butyl-dihydrobenzofuran-5-ol and its derivatives” (Chugai Seiyaku Kabushiki Kaisha, priority 1992, dated 1996).

Holding throughout (type): biochemical
The subject of one experiment is Rabbit LDL. As to the kind of experiment: Amount of TBARS (Cu^2+-induced oxidation of rabbit LDL). To be noted: 5 μM Cu^2+. The method, then: Rabbit LDL was prepared in accordance with the method of Havel et al. [Havel, R. J. et al., J. Clin. Invest., 34, (1955)]. After adding 5 μM of Cu^2+, the mixture was warmed until a thiobarbituric acid reactive substance (TBARS) was produced. The test compounds were evaluated for their anti-oxidative action with the amount of TBARS being used as an index. [formula]

In experiment [1] the test system is xanthine oxidase (XOD)-hypoxanthine (HX) system (superoxide). Put plainly: Xanthine oxidase system (superoxide generating system). To be noted: pH 7.4, 37° C. The method, then: The test compounds were evaluated under the following conditions for their effect in a reaction due to a xanthine oxidase (XOD)-hypoxanthine (HX) system in aqueous solution.
Xanthine oxidase 0.1 U/ml
Hepes buffer solution (pH 7.4)
(§1) A reaction solution was prepared by mixing hypoxanthine and luminol in the Hepes buffer solution and stored in ice until use. After warming the reaction solution at 37° C. for about 10 min, the reaction was started by addition of the xanthine oxidase solution. A measurement was started right after the addition of xanthine oxidase and subsequent stirring; chemiluminescence intensity was normally measured right after the start of the reaction. In the experimental model, luminol-dependent chemiluminescence induced by superoxide generated by enzymatic reaction of xanthine oxidase was detected, thus enabling the measurement of the reactivity with superoxide.

Experiment [2] concerns lactoperoxidase reaction system (singlet oxygen). As to the kind of experiment: Lactoperoxidase system (singlet oxygen system). Conditions: pH 4.5, 37° C. The method, then:
The test compounds were evaluated under the following conditions for their effect against a lactoperoxidase reaction system.
Lactoperoxidase 10 μg/ml
Acetate buffer solution (pH 4.5)
as §1, with “hydrogen peroxide, sodium bromide” for “hypoxanthine”, “acetate” for “Hepes”, “lactoperoxidase” for “xanthine oxidase”, “was” for “was normally”, “singlet oxygen” for “superoxide”, “singlet oxygen.” for “superoxide.”

In experiment [3] the target is lipid peroxidation due to the autoxidation of linoleic acid. As to the kind of experiment: Linoleic acid-MCLA system, Test Case 4. Conditions: linoleic acid 10 mM, MCLA 2 μM, 1-butanol, 37° C.; read-out: 50% inhibition concentration. The method, then: The test compounds were evaluated for their inhibitory effect against lipid peroxidation due to the autoxidation of linoleic acid.
A reaction solution was prepared by mixing linoleic acid and MCLA (2-methyl-6-(p-methoxyphenyl)-3,7-dihydroimidazo[1,2-a]pyrazin-3-one) in 1-butanol and stored in ice until use. An amount of this reaction solution was sampled in a chemiluminescence measuring cell and, immediately thereafter, the intensity of chemiluminescence due to the autoxidation of linoleic acid was measured at 37° C. in a thermostatic bath. A normal chemiluminescence intensity measurement was conducted about 2-4 min later when the chemiluminescence substantially peaked.

As for `CCCCCCCCC1Cc2c(cc(C(C)(C)C)c(O)c2C(C)(C)C)O1` (stereo not drawn) [Compound g, 4,6-Di-tert-Butyl-5-Hydroxy-2-Octyl-2,3-Dihydrobenzofuran], the “TBARS produced (%)” value is reported as 8.8% in the experiment on Rabbit LDL (at 10^-5 M of compound, 10 µM) and 82.6% in the experiment with Rabbit LDL (at 10^-6 M of compound, 1 µM). The “Chemiluminescence intensity (% of control)” value is listed as 88.6 % of control in experiment [1] (at 20 μM of compound), 104.8 % of control in experiment [1] (at 200 μM of compound), 97.0 % of control in experiment [2] (at 20 μM of compound) and 76.0 % of control in experiment [2] (at 200 μM of compound).
For `CC(C)(C)c1cc(O)c(C(C)(C)C)c2c1OCC2` [Comparison 5, reference compound], in experiment [3], the IC50 amounted to 41 µM. For the same compound, the “Chemiluminescence intensity (% of control)” value in experiment [1] (at 20 μM of compound) is 21.9 % of control; in experiment [1] (at 200 μM of compound), 8.2 % of control; in experiment [2] (at 20 μM of compound) it was 95.3 % of control; in experiment [2] (at 200 μM of compound), 4.5 % of control.
`CC(C)(C)c1cc2c(c(C(C)(C)C)c1O)CCO2` [Compound a, 4,6-Di-tert-Butyl-5-Hydroxy-2,3-Dihydrobenzofuran]: the “TBARS produced (%)” value in the experiment with Rabbit LDL (at 10^-5 M of compound, 10 µM) is recorded as 10.3%; with Rabbit LDL (at 10^-6 M of compound, 1 µM) it was 52.2%. In experiment [3], the IC50 is 7 µM. Further, the “Chemiluminescence intensity (% of control)” value in experiment [1] (at 20 μM of compound) is on record as 41.8 % of control; in experiment [1] (at 200 μM of compound), 26.1 % of control; in experiment [2] (at 20 μM of compound) it was 94.5 % of control; in experiment [2] (at 200 μM of compound), 56.6 % of control.
For `CCC(C)c1cc2c(c(C(C)(C)C)c1O)CCO2` (stereo not drawn) [Comparison 7, reference compound], the IC50 in experiment [3] worked out at 7 µM. The “Chemiluminescence intensity (% of control)” value is given as 55.8 % of control in experiment [1] (at 20 μM of compound), 17.5 % of control in experiment [1] (at 200 μM of compound), 86.2 % of control in experiment [2] (at 20 μM of compound) and 0.8 % of control in experiment [2] (at 200 μM of compound).
Regarding `CCCc1c2c(c(C(C)(C)C)c(O)c1C(C)(C)C)CC(C)(C)O2` [q, 5-Hydroxy-4,6-Di-tert-Butyl-2,2-Dimethyl-7-Propyl-2,3-Dihydrobenzofuran], the “TBARS produced (%)” value in the experiment with Rabbit LDL (at 10^-5 M of compound, 10 µM) turned out to be 56.8%; with Rabbit LDL (at 10^-6 M of compound, 1 µM), 97.4%. Further, in experiment [3], the IC50 was 5 µM. Besides, the results for the “Chemiluminescence intensity (% of control)” value in experiment [2] (at 20 μM of compound) and in experiment [2] (at 200 μM of compound) were 104.0 % of control and 73.4 % of control, respectively.
Turning to `CC1Cc2c(c(C(C)(C)C)cc(O)c2C(C)(C)C)O1` (stereo not drawn) [Comparison 6, reference compound], the IC50 in experiment [3] came out at 19 µM. Also, the “Chemiluminescence intensity (% of control)” value in experiment [1] (at 20 μM of compound) is given as 31.9 % of control; in experiment [1] (at 200 μM of compound), 24.0 % of control; in experiment [2] (at 20 μM of compound), 105.8 % of control; in experiment [2] (at 200 μM of compound), 8.1 % of control.
The matching figures for `CC1Cc2c(ccc(O)c2C(C)(C)C)O1` (stereo not drawn) [Comparison 2, reference compound]: 54 µM, 32.7 % of control, 3.2 % of control, 82.1 % of control and 15.1 % of control.
The like results for `CC(C)(C)c1c(O)ccc2c1CCO2` [Comparison 1, reference compound] were, in that order, 62 µM, 23.9 % of control, 6.3 % of control, 77.6 % of control and 6.0 % of control.
For `CC(C)(C)c1cc2c(c(C(C)(C)C)c1O)CC1(CCCC1)O2` [Compound m, 4,6-Di-tert-Butyl-5-Hydroxy-2,3-Dihydrobenzofuran-2-Spiro-1'-Cyclopentane], the “TBARS produced (%)” value was 11.8% in the experiment on Rabbit LDL (at 10^-5 M of compound, 10 µM) and 85.3% with Rabbit LDL (at 10^-6 M of compound, 1 µM). Besides, in experiment [3], the IC50 came out at 7 µM. Also, the “Chemiluminescence intensity (% of control)” value in experiment [1] (at 20 μM of compound) is 83.1 % of control; in experiment [1] (at 200 μM of compound) it was 89.8 % of control.
